Source: patent US11059800B2, “Dehydroleucodine derivatives and uses thereof” (Bioventures, LLC, priority 2013, dated 2021)
Entries after “also recorded” stand apart in the source; their conditions may differ.

What was measured:
[1] = system: KG-1; assay: Cytotoxicity, annexin V/7-AAD viability by flow cytometry, KG-1; format: cell-based, human; conditions: KG-1, 48 hours, drug range tested 1.25-160 μM
Procedure: In order to assess the structure-activity relationship of DHL and its derivatives, DHL and its derivatives were evaluated against eight human leukemia cell lines. Cell lines were cultured in Iscove's Modified Dulbecco's Medium (IMDM) supplemented with 10%˜20% fetal bovine serum (FBS) according to culture conditions indicated by ATCC and 1% penicillin/streptomycin (Pen/Strep) at 37° C. and 5% CO2. […] Cell viability was determined after incubating for 48 hours.

[2] = system: K-562; assay: Single dose tumor cell growth inhibition, Leukemia K-562; format: cell-based; conditions: K-562, single dose 10 μM
Source text: (§1) DHL is cytotoxic to various leukemia, colon cancer, CNS cancer and prostate cancer cell lines.

[3] = system: CCRF-CEM; assay: Single dose tumor cell growth inhibition, Leukemia CCRF-CEM; format: cell-based; conditions: single dose 10 μM
Source text: as §1

[4] = system: HMOX-1, HSPA1A, HSPH1; assay: Real-time PCR gene expression in KG-1 and MOLM-13 cells; format: cell-based; conditions: 20 μM, 6 hours
Source text: FIG. 1A, FIG. 1B, FIG. 1C, FIG. 1D and FIG. 1E present the changes in gene expression in KG1 or MOLM13 cells after exposure to dehydroleucodine, parthenolide, or derivatives thereof. Plotted is the fold change in expression relative to control after treatment with parthenolide-tyramine (PTL-Tyr), parthenolide (PTL), leucodine (Leuco), dehydroleucodine (DHL), dehydroleucodine-tyramine (DHL-Tyr), or dehydroleucodine-morpholine (DHL-Morp). […] FIG. 1B plots the expression of HSPA1A in KG1 cells. FIG. 1C presents the expression of HSPH1 in KG1 cells. […] FIG. 1E presents the expression of HSPH1 in MOLM13 cells. Error bars represent S.E.M.
MOLM-13 and KG-1 cells were seeded at 0.5 million cells per ml. Cells were treated for 6 hours with 20 μM of parthenolide (PTL), dehydroleucodine (DHL), leucodine (Leu), parthenolide-tyramine (PTL-Tyr), dehydroleucodine-tyramine (DHL-Tyr) and dehydroleucodine-Morpholine (DHL-Morp), and then collected. Total RNA was extracted using the Qiashredder and Qiagen Rneasy mini kits (Quiagen) according to the manufacturer's instructions. Real-time PCR was performed using the Taqman RNA to CT 1-Step kit (Applied Biosystems). […] Single-plex real-time PCR was performed in triplicates in a StepOne plus RealTime PCR system (Applied Biosystems) and analyzed with the StepOne Software. Fold change was calculated using the 2-DDCT method.

[5] = system: normal bone marrow and peripheral blood mononuclear cells; conditions: 20 μM, 48 hours, AML n=8 vs normal n=4, Mann-Whitney p=0.004
Procedure: The cells were seeded into 96-well plates and kept at a concentration of 0.5 million cells per mL. The samples were treated with DHL, Leucodine, DHL-Morpholine, DHL-Proline, DHL-Piperidine, and PTL at varying concentrations in triplicates. Cell viability was determined after incubating for 48 hours. The cells were stained with annexin V-fluorescein isothiocyanate or phycoeritrine (FITC/PE) and 7-aminoactinomycin (7-AAD) to detect phosphatidylserine exposition and cell permeability, respectively. At least 50,000 events were recorded per condition on either an LSR-II or LSR-Fortessa flow cytometer (BD Biosciences). Data analysis was conducted using FlowJo 9.6 software for Mac OS X (TreeStar). Cells that were negative for annexin V and 7-AAD were scored as viable.

[6] = system: U-937; assay: Cytotoxicity, annexin V/7-AAD viability by flow cytometry, U-937; format: cell-based, human; conditions: U-937, 48 hours, drug range tested 1.25-160 μM
Procedure: In order to assess the structure-activity relationship of DHL and its derivatives, DHL and its derivatives were evaluated against eight human leukemia cell lines. Cell lines were cultured in Iscove's Modified Dulbecco's Medium (IMDM) supplemented with 10%˜20% fetal bovine serum (FBS) according to culture conditions indicated by ATCC and 1% penicillin/streptomycin (Pen/Strep) at 37° C. and 5% CO2. The cells were seeded into 96-well plates and kept at a concentration of 0.5 million cells per mL. The samples were treated with DHL, Leucodine, DHL-Morpholine, DHL-Proline, DHL-Piperidine, and PTL at varying concentrations in triplicates. Cell viability was determined after incubating for 48 hours. The cells were stained with annexin V-fluorescein isothiocyanate or phycoeritrine (FITC/PE) and 7-aminoactinomycin (7-AAD) to detect phosphatidylserine exposition and cell permeability, respectively. At least 50,000 events were recorded per condition on either an LSR-II or LSR-Fortessa flow cytometer (BD Biosciences). Data analysis was conducted using FlowJo 9.6 software for Mac OS X (TreeStar). Cells that were negative for annexin V and 7-AAD were scored as viable.

[7] = system: phospho-p65; assay: Western blot of phospho-p65 and total p65 in MOLM-13 cells; format: cell-based; conditions: 10 or 20 μM, 6 hours
Procedure: (FIG. 8A) Graphical representation of the fold changes of HMOX-1 in MOLM-13 cells. Cells were seeded at 0.5 million cells per milliliter and subject to 20 μM of DHL, leucodine, DHL-proline, DHL-piperidine, DHL-morpholine, or parthenolide for 6 hours. RNA was then extracted and quantitative PCR was performed. Experiments were performed in triplicates. Lines represent mean for each specimen, with error bars representing the SD. Fold change was calculated by the delta-delta Ct method. […] (FIG. 8D) Immunoblot for MOLM-13 cells after 6 hours of treatment with either DHL or PTL with 10 or 20 μM. Blot was probed for phospho-p65 and p65 antibodies. Total p65 is shown as the loading control.

[8] = system: SNB-75; assay: Single dose tumor cell growth inhibition, CNS Cancer SNB-75; format: cell-based, human; conditions: SNB-75, single dose 10 μM
Source text: as §1

[9] = system: NCI/ADR-RES; assay: Single dose tumor cell growth inhibition, Ovarian Cancer NCI/ADR-RES; format: cell-based; conditions: single dose 10 μM
Source text: as §1

[10] = system: HCT-116; assay: Single dose tumor cell growth inhibition, Colon Cancer HCT-116; format: cell-based, human; conditions: HCT-116, single dose 10 μM
Source text: as §1

[11] = system: PC-3; assay: Single dose tumor cell growth inhibition, Prostate Cancer PC-3; format: cell-based, human; conditions: PC-3, single dose 10 μM
Source text: as §1

**Q.** What does the source list for C=C1C(=O)O[C@@H]2[C@H]3C(C)=CC(=O)C3=C(C)CC[C@@H]12 [DHL, dehydroleucodine]?
**A.** LD50 [1]: 18.66 µM; Percent inhibition [2]: 42.0%; Percent inhibition [3]: 44.9%; expression of HMOX-1, HSPA1A and HSPH1 [4]: activated the expression of all three target genes in both cell lines; also recorded: more potent than PTL; potency to AML cell lines versus normal mononuclear cells [5]: significantly more potent to the AML cell lines; LD50 [6]: 18.95 µM; phospho-p65 level by Western blot [7]: significant decrease; Percent inhibition [8]: 35.5%; Percent inhibition [9]: 0.0%; Percent inhibition [10]: 41.3%; Percent inhibition [11]: 38.6%
